Measured values published in US10149890B2 (priority 2010, dated 2018).
“And” between values parts separate entries of the source, which are not always exact repeats. Equal values may be shown once.

Key:
[1] = system: influenza virus strain A/FPV/Rostock/34; design: species or system chickens; settings: in vivo
[2] = system: human immunodeficiency virus HIV-1 (LAI); type: cell-based
[3] = system: human immunodeficiency virus HIV-1 (LAI); type: cell-based; settings: 0.01 mg/ml
[4] = system: clinical isolates of MRSA and MSSA, Staphylococcus aureus ATCC 43300 and ATCC 29213; type: cell-based; settings: for MIC of the antibiotic alone: before combination with FS-1

CC(N)C12CC3CC(CC(C3)C1)C2 (stereo not shown) [Rimantadine]
Number of chickens that died [1]: 10 and 8 | Number of survived chickens [1]: 4 and 6 | Survival % [1]: 28.6 ± 12.53% and 42.9 ± 13.73%

Cc1cn([C@H]2C[C@H](N=[N+]=[N-])[C@@H](CO)O2)c(=O)[nH]c1=O [azidothymidine]
Extinction factor (p24) ([2]; 0.01 mg/ml): 0.0446 ± 0.003187 | Decrease of p24 protein compared to placebo ([2]; FS-1 0.188 and 0.094 mg/ml, azidothymidine 0.01 mg/ml): 60 times | Decrease of reverse transcriptase content compared with negative control [3]: 5 times | Extinction factor (reverse transcriptase) [3]: 0.5724 ± 0.005464

Cn1nnnc1SCC1=C(C(=O)O)N2C(=O)[C@@H](NC(=O)[C@H](O)c3ccccc3)[C@H]2SC1 [cefamandole]
MIC of the antibiotic in combination with FS-1 [4]: 8 µg/mL | MIC of the antibiotic alone [4]: 64 µg/mL

CCC[C@@H]1C[C@@H](C(=O)N[C@@H]([C@H]2O[C@H](SC)[C@H](O)[C@@H](O)[C@H]2O)[C@@H](C)O)N(C)C1 [lincomycin]
MIC of the antibiotic in combination with FS-1 [4]: 8 µg/mL | MIC of the antibiotic alone [4]: 64 µg/mL

Cc1onc(-c2ccccc2)c1C(=O)N[C@@H]1C(=O)N2[C@@H]1SC(C)(C)[C@@H]2C(=O)O [oxacillin]
MIC of the antibiotic in combination with FS-1 [4]: 64 µg/mL | MIC of the antibiotic alone [4]: 256 µg/mL
